Assay results from patent US20260248763A1 (BIO GENUINE (SHANGHAI) BIOTECH CO., LTD, priority 2023, published 2026).

What was measured:
V1aR = biological target: T1, V1aR (Homo sapiens, UniProt P37288); test: Ca2+ mobilization in cells stably expressing V1aR (FLIPR, antagonist mode); type: cell-based; conditions: V1a-CHO stably transfected cell line
T1 construct: expressed in transfected cells; host or cells: V1a-CHO stably transfected cell line

OTR = biological target: T2, OTR (Homo sapiens, UniProt P30559); test: Ca2+ mobilization in cells stably expressing OTR (FLIPR, antagonist mode); type: cell-based; conditions: OTR/HEK293 stably transfected cell line
T2 construct: expressed in transfected cells; host or cells: OTR/HEK293 stably transfected cell line
T2 sequence (P30559 1-389): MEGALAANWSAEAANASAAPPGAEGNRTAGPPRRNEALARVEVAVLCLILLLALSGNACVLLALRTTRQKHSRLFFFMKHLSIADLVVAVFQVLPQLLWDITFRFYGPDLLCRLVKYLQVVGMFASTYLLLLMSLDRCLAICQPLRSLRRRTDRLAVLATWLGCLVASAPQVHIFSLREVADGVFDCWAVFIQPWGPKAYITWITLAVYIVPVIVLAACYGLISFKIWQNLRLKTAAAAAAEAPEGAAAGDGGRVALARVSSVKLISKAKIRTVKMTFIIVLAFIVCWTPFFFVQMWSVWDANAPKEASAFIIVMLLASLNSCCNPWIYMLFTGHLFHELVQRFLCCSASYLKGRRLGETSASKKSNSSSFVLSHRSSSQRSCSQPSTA
How it was run: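 OTR/HEK293 stable cells (20,000 per well) were loaded with Fluo-4 Direct plus probenecid. Cells were pre-exposed to 10-point, 3-fold compound dilutions before agonist challenge at EC80, determined beforehand per cell line. FLIPR calcium fluorescence (Max-Min) was fitted in Prism.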

T1 sequence (P37288 whole entry, species assumed): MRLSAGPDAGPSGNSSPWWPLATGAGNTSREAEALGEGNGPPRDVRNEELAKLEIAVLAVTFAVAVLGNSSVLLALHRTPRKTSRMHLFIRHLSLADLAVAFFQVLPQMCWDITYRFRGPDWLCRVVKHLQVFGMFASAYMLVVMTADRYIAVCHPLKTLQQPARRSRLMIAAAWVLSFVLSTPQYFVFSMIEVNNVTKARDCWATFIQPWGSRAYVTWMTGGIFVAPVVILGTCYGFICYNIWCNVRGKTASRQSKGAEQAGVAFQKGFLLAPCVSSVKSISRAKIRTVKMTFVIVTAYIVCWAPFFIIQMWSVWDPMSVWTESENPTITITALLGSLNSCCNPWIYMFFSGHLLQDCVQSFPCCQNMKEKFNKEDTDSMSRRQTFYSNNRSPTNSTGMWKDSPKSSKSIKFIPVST

SMILES	IC50 (V1aR) [nM]	IC50 (OTR) [nM]
CO/N=C1/C[C@@H](CO)N(C(=O)c2ccc(-c3cc(F)cc(C#N)c3C)c3c2OCCO3)C1 [Example C0152, (S,Z)-5-Fluoro-3-(8-(2-(hydroxymethyl)-4-(methoxyimino)pyrrolidine-1-carbonyl)-2,3-dihydrobenzo[b][1,4]dioxin-5-yl)-2-methylbenzonitrile]	9810	6.63
CON=C1CC(CO)N(C(=O)c2ccc(-c3cccc(C#N)c3C)c3c2OCO3)C1 (single isomer, unassigned) [Example C0099]	5280	17.5

Molecules with a lower IC50 (V1aR), results first:

IC50 (V1aR) [nM]	IC50 (OTR) [nM]	SMILES
2250	17.7	CO/N=C1/C[C@@H](CO)N(C(=O)c2ccc(-c3cccc(C#N)c3C)cc2)C1 [Example C0058, (S, Z)-4′-(2-(Hydroxymethyl)-4-(methoxyimino)pyrrolidine-1-carbonyl)-2-methyl-[1,1′-biphenyl]-3-carbonitrile]
602	7.51	CO/N=C1/C[C@@H]([C@@H](C)O)N(C(=O)c2ccc(-c3cccc(C#N)c3C)cc2)C1 (single isomer, unassigned) [Example C0112]
1360	20.8	CO/N=C1/C[C@@H](CO)N(C(=O)c2ccc(-c3cccc(C#N)c3Cl)cc2)C1 [Example A0203, 2-Chloro-3-(4-[(2S, 4Z)-2-(hydroxymethyl)-4-(methoxyimino)pyrrolidine-1-carbonyl]phenyl)benzonitrile]
